Laboratory results taken from patent publication US20100022646A1, “METHOD OF NEUTRALISING ORGANOBORONATES WITH ACIDS” (priority 2004, published 2010).

Tests used:
thrombin [1] = assay: IC50 values: percentage reversal of TRI 50c inhibition of thrombin by hydroxy fatty acid; format: biochemical; details: thrombin 33.3 ng/ml, TRI 50c 300 nM final, 30 minutes at 37° C., S2238
Description: 50 μl thrombin (33.3 ng/ml in assay buffer) and 20 μl TRI 50c (300 nM final) were added to 10 μl assay buffer (100 mM Na orthophosphate (80% Na2HPO4 and 20% NaH2PO4), 200 mM NaCl, 0.5% PEG 6000, 0.02% Na azide, pH 7.5) and incubated for 5 minutes at 37° C. After the incubation period 100 μl of hydroxy fatty acid was added and further incubated for 30 minutes at 37° C. […] Results were expressed as percentage reversal of TRI 50c inhibition.

thrombin [2] = target: T1, thrombin (Homo sapiens, UniProt P00734); assay: Thrombin amidolytic assay (FIGS. 1 to 3): neutralisation of TRI 50c inhibition of thrombin; format: biochemical; details: for TRI 50c neutralising activity: FIG. 2, cholesterol linoleic acid esters and free linoleic acids, stereoisomers; for neutralising the effect of TRI 50c (thrombin activity restored): added after 100 nM TRI 50c; for neutralising ability against TRI 50c: FIG. 3, over 30 minutes
T1 construct: purchased Haematologic Technologies Inc
Description: Peptide boronate inhibitors were synthesised by Trigen Limited. Thrombin was obtained from Haematologic Technologies Inc. Chromogenic substrate was obtained from Quadratech. Linoleic acid analogues were obtained from Cayman Chemicals USA. Buffer reagents were obtained from Merck.
Peptide boronate inhibitor of thrombin (TRI 50c, 100 nM) was incubated with thrombin (33.3 ng/ml) in assay buffer (100 mM sodium phosphate, 200 mM NaCl, 0.5% PEG 6000 and 0.02% sodium azide, pH 7.5) for 5 minutes at 37° C. Test compounds were then added and incubated for various amounts of time prior to the addition of S2238 chromogenic substrate (5 uM). The reaction was followed at […] and 37° C. using a Thermomax kinetic plate reader (Molecular Devices Corporation). Results of the assay are expressed as percentage activities of thrombin relative to that seen in the absence of inhibitor or antidote.

[3] = Assay for deboronation (LCMS of TGN 255/9(S)-HODE mixture); details: TGN 255 6.7 mg/ml, 9(S)-HODE 0.01 mg/ml, 37° C. 30 mins, then room temperature overnight; uv chromatogram and mass
Description: This Example relates to a method for detecting the amount of deboronation of a product, TRI 50, in the presence of 9-HODE. A proposed mechanism for the degradation of TRI 50 is shown below.
The thrombin buffer was made up of 100 mM NaOphosphate [80% Na2HPO4 (11.36 g/l anhydrous)+20% NaH2PO4 (2.4 g/l anhydrous)], 200 mM NaCl (11.688 g/l), 0.5% PEG 6000 (5 g/l), 0.02% Na azide (0.2 g/l), pH 7.5.
TGN 255 (20 mg) was dissolved in DMSO (1.9 ml). To this was added thrombin buffer (0.8 ml), followed by 9(S)-HODE (supplied by Cayman Chemical) in thrombin buffer (0.3 ml, 337 uM). The solution was incubated at 37° C. for 30 mins.
Samples of TGN 255 (14 mg/ml in methanol) and Impurity I (5.6 mg/ml in methanol) were prepared as standards. The 9(S)-HODE assay sample was allowed to stand at room temperature overnight and analysed the following day.

[4] = Neutralisation by cholesteryl linoleate hydroperoxide (residual TRI-50b concentration)
Description: Cholesteryl linoleate hydroperoxide (44 μM) was incubated with TRI-50b in the range 0 to 4.9 mM. Samples were taken at timed intervals and the residual TRI-50b concentration was determined by Method C (Materials and Methods).

Compound | IC50 (thrombin [1]) | further results
CCCCC/C=C\C=C\[C@H](CCCCCCCC(=O)O)OO [9(S)-HpODE, 9-(S)-hydroperoxy-10E,12Z-octadecadienoic acid] | > 30 µM | 
CCCCC[C@@H](/C=C/C=C\CCCCCCCC(=O)O)OO [13(S)-HpODE, 13(S)-hydroperoxy-octadecadienoic acid] |  | TRI 50c neutralising activity (thrombin [2]): particularly good
CC/C=C\C/C=C\C/C=C\C=C\[C@@H](O)C/C=C\CCCC(=O)O [8(S)-HEPE, 8(S)-hydroxy-5Z, 9E, 11Z, 14Z, 17Z-eicosapentaenoic acid] | 14 µM | 
COCCC[C@H](NC(=O)[C@@H]1CCCN1C(=O)[C@@H](Cc1ccccc1)NC(=O)OCc1ccccc1)B(O)O [TRI 50c, Cbz-(R)-Phe-(S)-Pro-(R)-Mpg-B(OH)2, reference compound] |  | thrombin activity as compared with the control (no TRI 50c present) (thrombin [2]; FIG. 1, addition of 100 nM TRI 50c, thrombin 33.3 ng/ml, S2238 substrate): approximately 50%
9,13- hydroxy cholesterol linoleic acid ester [9/13-CLOH] |  | neutralising the effect of TRI 50c (thrombin activity restored) (thrombin [2]; FIG. 1): effective in neutralising the effect of TRI 50c
C[C@H]1CCC/C=C/C2C[C@H](O)CC2[C@H](O)/C=C/C(=O)O1 (single isomer, unassigned; (+)) [(+)-Brefeldin A, reference compound] | > 30 µM | 
CCCCC/C=C\C=C\[C@@H](O)CCCCCCCC(=O)O [9(S)-HODE, 9(S)-hydroxy-10E,12Z-octadecadienoic acid] | 12 µM | TRI 50c neutralising activity (thrombin [2]): particularly good; neutralising ability against TRI 50c (thrombin [2]): particularly good effect; deboronation/degradation of TGN 255 to Impurity I [3]: degradation has occurred
CCCCC/C=C\C=C\[C@H](O)CCCCCCCC(=O)O [9(R)-HODE] | > 30 µM | 
CCCCC/C=C\C=C\[C@@H](O)CCCCCCCC(=O)OC1CC[C@@]2(C)C(=CCC3C4CCC(C(C)CCCC(C)C)[C@@]4(C)CCC32)C1 (stereo partly drawn) [9(S)-HODE cholesteryl ester] | 4.4 µM | TRI 50c neutralising activity (thrombin [2]): particularly good; neutralising ability against TRI 50c (thrombin [2]): very good
CCCCCC=CC=CC(O)CCCCCCCC(=O)O[C@H]1CC[C@@]2(C)C(=CC[C@H]3[C@@H]4CC[C@H]([C@H](C)CCCC(C)C)[C@@]4(C)CC[C@@H]32)C1 (stereo partly shown) [9-CLOH, 9-hydroxy cholesterol linoleic acid ester] |  | neutralising the effect of TRI 50c (thrombin activity restored) (thrombin [2]; FIG. 1): effective in neutralising the effect of TRI 50c
CCCCC/C=C\C/C=C\C/C=C\C=C\[C@H](CCCC(=O)O)OO [5(S)-HPETE] | 25 µM | 
cholesterol hydroperoxylinoleic acid ester [CLOOH] |  | neutralising the effect of TRI 50c (thrombin activity restored) (thrombin [2]; FIG. 1): effective in neutralising the effect of TRI 50c; TRI 50c neutralising activity (thrombin [2]): particularly good; equivalence of neutralisation ([4]; 44 μM cholesteryl linoleate hydroperoxide mixed with TRI-50b): approximately 1 mole/mole; rate of neutralisation of TRI-50b ([4]; 44 μM cholesteryl linoleate hydroperoxide, TRI-50b 0 to 4.9 mM): high rate of neutralisation
CCCCC/C=C\C/C=C\C=C\[C@@H](O)CCCCCCC(=O)O [8(S)-HETRE, 8(S)-hydroxy-9E, 11Z, 14Z-eicosatrienoic acid] | 16 µM | 

More lines, main results first:

IC50 (thrombin [1]) | Compound | further results
> 30 µM | CCCCC/C=C\C=C\C(O)CCCCCCCCCC(=O)O (racemic) [(+/−)11-HEDE] | 
> 30 µM | CC/C=C\C/C=C\C=C\[C@@H](O)CCCCCCCC(=O)O [9(S)-HOTRE] | 
> 30 µM | COC(=O)[C@H]1CC2CCC1[C@@H](O)C2 (stereo in doubt) [Methyl 6-hydroxybicyclo[2.2.2]octane-2-carboxylate, reference compound] | 
> 30 µM | CC1(C)[C@@]2(C)CC[C@]1(C)[C@H](CC(=O)O)[C@H]2O [(−)-Isoborneolacetic Acid, reference compound] | 
> 30 µM | CCCCC/C=C\C/C=C\CC(O)C(O)C/C=C\CCCC(=O)O (racemic) [(+/−)8,9-DIHETRE] | 
> 30 µM | CCCCC/C=C\C/C=C\C=C\C(O)C/C=C\CCCC(=O)O (racemic) [(+/−)8-HETE] | 
> 30 µM | CCCCC/C=C\C/C=C\C/C=C\C=C\C(O)CCCC(=O)O (racemic) [(+/−)5-HETE] | 
